≈ marks a conversion by molar mass, not a printed value.
Legend:
Format in all cases: functional
Streptococcus pneumoniae = experiment: Antibacterial activity against Streptococcus pneumoniae ATCC 6301
Bacillus cereus = experiment: Antibacterial activity against Bacillus cereus ATCC 11778
Bacillus subtilis = experiment: Antibacterial activity against Bacillus subtilis ATCC 23857
Candida albicans = experiment: Antifungal activity against Candida albicans ATCC 90028
Clostridium perfringens = experiment: Antibacterial activity against Clostridium perfringens ATCC 10388
[1] = tested on: Staphylococcus epidermidis; experiment: Antibacterial activity against methicillin-resistant Staphylococcus epidermidis ATCC 51625
Staphylococcus aureus [2] = experiment: Antibacterial activity against Staphylococcus aureus ATCC 29213
Staphylococcus aureus [3] = experiment: Antibacterial activity against methicillin-resistant Staphylococcus aureus ATCC 33591
Enterococcus faecium = experiment: Antibacterial activity against vancomycin-resistant Enterococcus faecium ATCC 700221
Enterococcus faecalis = experiment: Antibacterial activity against vancomycin-resistant Enterococcus faecalis ATCC 51575
Bacteroides fragilis = experiment: Antibacterial activity against […] ATCC 23745
[4] = tested on: Staphylococcus epidermidis; experiment: Antibacterial activity against Staphylococcus epidermidis ATCC 12228
Staphylococcus aureus [5] = experiment: Antibacterial activity against multidrug resistant Staphylococcus aureus BAA-39
[6] = Ratio of MIC for Candida albicans ATCC 90028 to MIC for methicillin-resistant Staphylococcus aureus ATCC 33591
[7] = Ratio of MIC for Candida albicans ATCC 90028 to MIC for vancomycin-resistant Enterococcus faecium ATCC 700221

SMILES	MIC (Streptococcus pneumoniae)	MIC (Bacillus cereus)	MIC (Bacillus subtilis)	MIC (Candida albicans)	MIC (Clostridium perfringens)	MIC [1]	MIC (Staphylococcus aureus [2])	MIC (Staphylococcus aureus [3])	MIC (Enterococcus faecium)	MIC (Enterococcus faecalis)	MIC (Bacteroides fragilis)	MIC [4]	MIC (Staphylococcus aureus [5])	Ratio [6]	Ratio [7]
CC(C)NC(=N)c1ccc2cc(-c3ccc(Oc4ccc(-c5cc6ccc(C(=N)NC(C)C)cc6[nH]5)cc4)cc3)[nH]c2c1	≤ 0.06 µg/mL	≤ 0.06 µg/mL	≤ 0.06 µg/mL	0.5 µg/mL (≈ 0.879 µM)	0.5 µg/mL (≈ 0.879 µM)	≤ 0.06 µg/mL	0.12 µg/mL (≈ 0.211 µM)	≤ 0.06 µg/mL	≤ 0.06 µg/mL	0.25 µg/mL (≈ 0.44 µM)	0.125 µg/mL (≈ 0.22 µM)	≤ 0.06 µg/mL	≤ 0.06 µg/mL	8	
N=C(c1ccc2[nH]c(-c3ccc(Oc4ccc(-c5nc6cc(C(=N)N7CCSCC7)ccc6[nH]5)cc4)cc3)nc2c1)N1CCSCC1	0.25 µg/mL (≈ 0.379 µM)	0.5 µg/mL (≈ 0.759 µM)	0.25 µg/mL (≈ 0.379 µM)	16 µg/mL (≈ 24.3 µM)	1 µg/mL (≈ 1.52 µM)	0.25 µg/mL (≈ 0.379 µM)	0.5 µg/mL (≈ 0.759 µM)	0.25 µg/mL (≈ 0.379 µM)	0.5 µg/mL (≈ 0.759 µM)	0.5 µg/mL (≈ 0.759 µM)	4 µg/mL (≈ 6.07 µM)	0.12 µg/mL (≈ 0.182 µM)	0.5 µg/mL (≈ 0.759 µM)	32	32
COc1cc(Oc2ccc(-c3nc4cc(C(=N)NC(C)C)ccc4[nH]3)c(Cl)c2)ccc1-c1nc2cc(C(=N)NC(C)C)ccc2[nH]1	≤ 0.06 µg/mL	0.12 µg/mL (≈ 0.189 µM)	≤ 0.06 µg/mL	4 µg/mL (≈ 6.3 µM)	0.25 µg/mL (≈ 0.394 µM)	≤ 0.06 µg/mL	0.25 µg/mL (≈ 0.394 µM)	0.25 µg/mL (≈ 0.394 µM)	≤ 0.06 µg/mL	0.25 µg/mL (≈ 0.394 µM)	> 32 µg/mL	≤ 0.06 µg/mL	0.5 µg/mL (≈ 0.787 µM)		
CC(C)NC(=N)c1ccc2[nH]c(-c3ccc(Oc4ccc(-c5nc6cc(C(=N)NC(C)C)ccc6[nH]5)cn4)cc3)nc2c1	0.12 µg/mL (≈ 0.21 µM)	0.12 µg/mL (≈ 0.21 µM)	0.25 µg/mL (≈ 0.437 µM)	2 µg/mL (≈ 3.5 µM)	2 µg/mL (≈ 3.5 µM)	0.12 µg/mL (≈ 0.21 µM)	1 µg/mL (≈ 1.75 µM)	0.5 µg/mL (≈ 0.875 µM)	≤ 0.06 µg/mL	0.25 µg/mL (≈ 0.437 µM)	> 32 µg/mL	0.12 µg/mL (≈ 0.21 µM)	1 µg/mL (≈ 1.75 µM)		
N=C(NC1CCCC1)c1ccc2[nH]c(-c3ccc(Oc4ccc(-c5nc6cc(C(=N)NC7CCCC7)ccc6[nH]5)cc4)cc3)nc2c1	< 0.06 µg/mL	< 0.06 µg/mL	< 0.06 µg/mL	2 µg/mL (≈ 3.21 µM)	0.25 µg/mL (≈ 0.401 µM)	0.12 µg/mL (≈ 0.193 µM)	0.25 µg/mL (≈ 0.401 µM)	0.5 µg/mL (≈ 0.803 µM)	< 0.06 µg/mL	0.25 µg/mL (≈ 0.401 µM)	32 µg/mL (≈ 51.4 µM)	0.12 µg/mL (≈ 0.193 µM)	0.5 µg/mL (≈ 0.803 µM)		
CC1(C)S[C@@H]2[C@H](NC(=O)Cc3ccccc3)C(=O)N2[C@H]1C(=O)O [PENICILLIN G]	< 0.06 µg/mL	> 4 µg/mL	< 0.06 µg/mL	> 32 µg/mL	< 0.12 µg/mL	32 µg/mL (≈ 95.7 µM)	1 µg/mL (≈ 2.99 µM)	> 32 µg/mL	> 32 µg/mL	4 µg/mL (≈ 12 µM)	4 µg/mL (≈ 12 µM)	32 µg/mL (≈ 95.7 µM)	> 32 µg/mL		
N=C(c1ccc2[nH]c(-c3ccc(Oc4ccc(-c5nc6cc(C(=N)N7CCC(N8CCCC8)CC7)ccc6[nH]5)cc4)cc3)nc2c1)N1CCC(N2CCCC2)CC1	> 32 µg/mL	1 µg/mL (≈ 1.31 µM)	4 µg/mL (≈ 5.26 µM)	16 µg/mL (≈ 21 µM)	> 32 µg/mL	1 µg/mL (≈ 1.31 µM)	8 µg/mL (≈ 10.5 µM)	4 µg/mL (≈ 5.26 µM)	2 µg/mL (≈ 2.63 µM)	8 µg/mL (≈ 10.5 µM)	> 32 µg/mL	1 µg/mL (≈ 1.31 µM)	4 µg/mL (≈ 5.26 µM)		
CC(C)NC(=N)c1ccc2[nH]c(-c3ccc(Oc4ccc(-c5nc6cc(C(=N)NC(C)C)ccc6[nH]5)nc4)cc3)nc2c1	≤ 0.06 µg/mL	0.12 µg/mL (≈ 0.21 µM)	≤ 0.06 µg/mL	4 µg/mL (≈ 7 µM)	0.5 µg/mL (≈ 0.875 µM)	0.12 µg/mL (≈ 0.21 µM)	0.5 µg/mL (≈ 0.875 µM)	0.5 µg/mL (≈ 0.875 µM)	≤ 0.06 µg/mL	0.12 µg/mL (≈ 0.21 µM)	32 µg/mL (≈ 56 µM)	0.12 µg/mL (≈ 0.21 µM)	0.5 µg/mL (≈ 0.875 µM)		

— ChEMBL document CHEMBL1153072, “Synthesis and structure-activity relationship of dicationic diaryl ethers as novel potent anti-MRSA and anti-VRE agents” (2009)
